Where a name gives a salt, the structure may show the parent alone.
Biological target: human α-thrombin (Homo sapiens, UniProt P00734)
Test: In vitro assay for determining proteinase inhibition: human α-thrombin
Format: biochemical
Settings: 25° C., 0.05 M TRIS buffer pH 7.4, 0.15 M NaCl, 0.1% PEG, class symbols, read-out: Inhibitory activity (Ki)
Protocol: In Vitro Assay For Determining Proteinase Inhibition
The assays were carried out at 25° C. in 0.05 M TRIS buffer pH 7.4, 0.15 M NaCl, 0.1% PEG. Trypsin assays also contained 1 mM CaCl2.
Concentrations of stock solutions of Z-GPR-afc were determined from measurements of absorbance at 380 nm of the 7-amino-4-trifluoromethyl coumarin produced upon complete hydrolysis of an aliquot of the stock solution by thrombin.
Times required to achieve equilibration between enzyme and inhibitor were determined in control experiments. Initial velocities of product formation in the absence (Vo) or presence of inhibitor (Vi) were measured. Assuming competitive inhibition, and that unity is negligible compared Km /[S], […] (where [S], [I], and e respectively represent the total concentrations, of substrate, inhibitor and enzyme), the equilibrium constant (Ki) for dissociation of the inhibitor from the enzyme can be obtained from the dependence of Vo /Vi on [I] shown in equation 1.

| Ki [nM] | SMILES |
| --- | --- |
| < 20 | Cc1cnc(NCCc2ccccn2)c(=O)n1CC(=O)NCc1ccc2nccn2c1C [Example 7, 3-[2-(2-Pyridyl)ethyleneamino]-6-methyl-1-(4-methyl-5-methylenecarboxamidomethyleneimidazo[1,2-a]pyridinyl)-pyrazinone] |
| < 20 | Cc1ccc(NS(=O)(=O)Cc2ccccc2)c(=O)n1CC(=O)NCc1ccc2nccn2c1C [Example 8, hydrochloride] |
| < 20 | Cc1cc2c(c(=O)n1CC(=O)NCc1ccc3nccn3c1C)NC(=O)[C@H](Cc1ccccc1)C2 [Example 9, [R]-7-(4-methyl-5-methylenecarboxamidomethyleneimidazo[1,2-a]pyridinyl)-3-benzyl-6-methyl-2-oxo-1,2,3,4-tetrahydro-1,7-naphthiridin-[7H]-8-one] |
| < 20 | Cc1cc(S(=O)(=O)CC2CCC2)c(N)c(=O)n1CC(=O)NCc1ccc2nccn2c1C [Example 6, 3-Amino-4-cyclobutylmethylenesulfonyl-6-methyl-1-(4-methyl-5-methylenecarboxamidomethyleneimidazo[1,2-a]pyridinyl)-pyridinone hydrochloride] |
| > 20 | Cc1cc(CNC(=O)Cn2c(C)cnc(NCCc3ccccc3)c2=O)cn2ccnc12 [Example 3, dihydrochloride] |
| > 20 | Cc1cc2nccn2cc1CNC(=O)Cn1c(C)cnc(NCCc2ccccc2)c1=O [Example 4, dihydrochloride] |
| < 20 | CC[C@H](C)CC1Cc2cc(C)n(CC(=O)NCc3ccc4nccn4c3C)c(=O)c2NC1=O (stereo partly drawn) [Example 10, 7-(4-methyl-5-methylenecarboxamidomethyleneimidazo[1,2-a]pyridinyl)-3-[RS]-(2-[S]-methylbutyl)-6-methyl-2-oxo-1,2,3,4-tetrahydro-1,7-naphthiridin-[7H]-8-one] |
| > 20 | Cc1cnc(NCCc2ccccc2)c(=O)n1CC(=O)NCc1ccn2ccnc2c1 [Example 5, 3-(2-Phenethyleneamino)-6-methyl-1-(6-methylenecarboxamidomethylene-imidazo[1,2-a]pyridinyl)-pyrazinone] |
| > 20 | Cc1cnc(NCCc2ccccc2)c(=O)n1CC(=O)NCc1ccc2nccn2c1 [Example 1, dihydrochloride] |

— US6093717A, “Imidazopyridine thrombin inhibitors” (Merck & Co., Inc., priority 1999, dated 2000)
